Structures can show the parent of a compound that is named as a salt.
Columns and labels:
HTT = test: HiBiT protein abundance assay, HTT (K562 HiBiT knock-in); format: cell-based, human; settings: HiBiT knock-in K562 cells, 24 hours, top dose 10 μM
Outline: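 Steps: seed HiBiT knock-in K562 cells; add compound in 10-point 3-fold series from 10 μM final; incubate 24 h, 37 °C; add lytic HiBiT reagent, shake 5 min, wait 10 min; read luminescence. Normalize to parental K562 and DMSO controls, fit 4PL, take IC50.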

Target C = test: RT-qPCR canonical junction panel assay, Target C mRNA; format: cell-based; settings: Table 4, read-out: Target C IC50 (decrease in CJ mRNA levels)
Outline: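 IC50 is the concentration giving 50% CJ decrease, from a 4-parameter logistic fit of percent response; response derived from ΔΔCt against housekeeper and DMSO over a fixed ΔCt window, with canonical exon-junction qPCR in compound-treated K562 or A673 cells.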

IC50 (HTT) [µM] | IC50 (Target C) [µM] | Structure (SMILES)
< 0.1 | 0.1 to 1 | Cc1nc2cc(O)c(-c3ccc4nc(N5CCC(NCC6CC6)C5)ccc4n3)cc2o1 (stereo not drawn) [Compound 389, 6-(6-{3-[(cyclopropylmethyl)amino]pyrrolidin-1-yl}-1,5-naphthyridin-2-yl)-2-methyl-1,3-benzoxazol-5-ol]
< 0.1 | < 0.1 | Cc1nc2c(C)c(O)c(-c3ccc4nc(N5CCC(NCC6CC6)C5)ccc4n3)cc2o1 (stereo not drawn) [Compound 390, 6-(6-{3-[(cyclopropylmethyl)amino]pyrrolidin-1-yl}-1,5-naphthyridin-2-yl)-2,4-dimethyl-1,3-benzoxazol-5-ol]
0.1 to 1 | 0.1 to 1 | CNC1CCN(c2ccc3nc(-c4cc(F)c5nc(C)cn5c4)ncc3n2)C1 (stereo not drawn) [Compound 393, 1-(2-{8-fluoro-2-methylimidazo[1,2-a]pyridin-6-yl}pyrido[3,2-d]pyrimidin-6-yl)-N-methylpyrrolidin-3-amine]
1 to 10 | > 10 | Cc1c(O)c(-c2ncc3nc(C4CCNC4)ccc3n2)cc2cn(C)nc12 (stereo not drawn) [Compound 397, 2,7-dimethyl-5-[6-(pyrrolidin-3-yl)pyrido[3,2-d]pyrimidin-2-yl]indazol-6-ol; trifluoroacetic acid]
> 10 | > 10 | Cc1c(O)c(-c2ncc3nc([C@H]4CCNC4)ccc3n2)cc2cn(C)nc12 [Compound 399]
0.1 to 1 | 1 to 10 | Cn1cc2cc(-c3ncc4nc(C5CCNCC5)ccc4n3)c(O)c(C#N)c2n1 [Compound 403, 6-hydroxy-2-methyl-5-[6-(piperidin-4-yl)pyrido[3,2-d]pyrimidin-2-yl]indazole-7-carbonitrile; trifluoroacetic acid]
< 0.1 | < 0.1 | Cn1cc2cc(-c3ccc4nc(N5CCC(NC(C)(C)C)C5)ncc4n3)c(O)cc2n1 (stereo not drawn) [Compound 404, 5-{2-[3-(tert-butylamino)pyrrolidin-1-yl]pyrido[3,2-d]pyrimidin-6-yl}-2-methylindazol-6-ol]
1 to 10 | 1 to 10 | COc1cc(-c2ccc3nc(N4CCC(NC(C)(C)C)C4)ncc3n2)cnn1 (stereo not drawn) [Compound 405, N-tert-butyl-1-[6-(6-methoxypyridazin-4-yl)pyrido[3,2-d]pyrimidin-2-yl]pyrrolidin-3-amine]
1 to 10 | 1 to 10 | CN[C@H]1CCN(c2ccc3nc(-c4cc(C#N)c5nc(C)cn5c4)ncc3n2)C1 [Compound 406, 2-methyl-6-{6-[(3S)-3-(methylamino)pyrrolidin-1-yl]pyrido[3,2-d]pyrimidin-2-yl}imidazo[1,2-a]pyridine-8-carbonitrile]
0.1 to 1 | 1 to 10 | CN[C@@H]1CCN(c2ccc3nc(-c4cc(C#N)c5nc(C)cn5c4)ncc3n2)C1 [Compound 407, 2-methyl-6-{6-[(3R)-3-(methylamino)pyrrolidin-1-yl]pyrido[3,2-d]pyrimidin-2-yl}imidazo[1,2-a]pyridine-8-carbonitrile]
0.1 to 1 | 1 to 10 | Cc1nc2cc(O)c(-c3ccc4nc(N5CCNCC5)ccc4n3)cc2o1 [Compound 408, 2-methyl-6-[6-(piperazin-1-yl)-1,5-naphthyridin-2-yl]-1,3-benzoxazol-5-ol]
0.1 to 1 | 1 to 10 | Cc1nc2cc(O)c(-c3ccc4nc(N5CCN[C@@H](C)C5)ccc4n3)cc2o1 [Compound 409]
0.1 to 1 | 0.1 to 1 | Cc1nc2cc(O)c(-c3ccc4nc(N5CCN6CCCC6C5)ccc4n3)cc2o1 (stereo not drawn) [Compound 410]
1 to 10 | 1 to 10 | Cc1nc2cc(O)c(-c3ccc4nc(N5CCNC6(CC6)C5)ccc4n3)cc2o1 [Compound 411]
0.1 to 1 | 0.1 to 1 | Cc1nc2cc(O)c(-c3ccc4nc(N5CCC(NC(C)(C)C)CC5)ccc4n3)cc2o1 [Compound 412]
< 0.1 | < 0.1 | Cc1nc2cc(O)c(-c3ccc4nc(N5CC[C@@H](NC(C)(C)C)C5)ncc4n3)cc2o1 [Compound 413, 6-{2-[(3R)-3-(tert-butylamino)pyrrolidin-1-yl]pyrido[3,2-d]pyrimidin-6-yl}-2-methyl-1,3-benzoxazol-5-ol]
0.1 to 1 | 1 to 10 | Cc1nc2cc(O)c(-c3ccc4nc(N5CC[C@H](NC(C)(C)C)C5)ncc4n3)cc2o1 [Compound 414, 6-{2-[(3S)-3-(tert-butylamino)pyrrolidin-1-yl]pyrido[3,2-d]pyrimidin-6-yl}-2-methyl-1,3-benzoxazol-5-ol]
< 0.1 | < 0.1 | Cc1nc2c(C)c(O)c(-c3ccc4nc(N5CC[C@H](NC(C)C)C5)ncc4n3)cc2o1 [Compound 416, 6-{2-[(3S)-3-(isopropylamino)pyrrolidin-1-yl]pyrido[3,2-d]pyrimidin-6-yl}-2,4-dimethyl-1,3-benzoxazol-5-ol]
0.1 to 1 | 1 to 10 | Cc1nc2cc(O)c(-c3ccc4cc(N5CC[C@@H](NC(C)(C)C)C5)ncc4n3)cc2o1 [Compound 417]

IC50 (HTT) [µM] | IC50 (Target C) [µM] | Structure (SMILES)
0.1 to 1 | 0.1 to 1 | Cc1nc2cc(O)c(-c3ccc4nc(N5CCN[C@@H](C6CC6)C5)ccc4n3)cc2o1 [Compound 418]
0.1 to 1 | 0.1 to 1 | Cc1nc2cc(O)c(-c3ccc4nc(N5C[C@@H](C)N[C@@H](C6CC6)C5)ccc4n3)cc2o1 [Compound 419]
0.1 to 1 | 1 to 10 | Cc1nc2cc(O)c(-c3ccc4nc(N5C[C@@H](C)N[C@@H](C)C5)ccc4n3)cc2o1 [Compound 420]
0.1 to 1 | 0.1 to 1 | Cc1nc2cc(O)c(-c3ccc4nc(N5CCN[C@H](C6CC6)C5)ccc4n3)cc2o1 [Compound 421]
0.1 to 1 | 1 to 10 | Cc1nc2cc(O)c(-c3ccc4nc(N5CCN[C@@H](C(C)C)C5)ccc4n3)cc2o1 [Compound 422]
1 to 10 | 1 to 10 | Cc1nc2cc(O)c(-c3ccc4nc(N5CCC(N)CC5)ccc4n3)cc2o1 [Compound 424]
1 to 10 | > 10 | CNC1CCN(c2ccc3nc(-c4cc5oc(C)nc5cc4O)ccc3n2)CC1 [Compound 425]
< 0.1 | 0.1 to 1 | Cc1nc2c(C)c(O)c(-c3ccc4nc(N5CC[C@H](NC6CC6)C5)ncc4n3)cc2o1 [Compound 433, 6-{2-[(3S)-3-(cyclopropylamino)pyrrolidin-1-yl]pyrido[3,2-d]pyrimidin-6-yl}-2,4-dimethyl-1,3-benzoxazol-5-ol]
0.1 to 1 | 0.1 to 1 | Cc1nc2cc(O)c(-c3ccc4nc(N5CC[C@H](NC6CC6)C5)ncc4n3)cc2o1 [Compound 435, 6-{2-[(3S)-3-(cyclopropylamino)pyrrolidin-1-yl]pyrido[3,2-d]pyrimidin-6-yl}-2-methyl-1,3-benzoxazol-5-ol]
< 0.1 | < 0.1 | Cc1nc2c(C)c(O)c(-c3ccc4nc(N5CC[C@@H](NC(C)(C)C)C5)ncc4n3)cc2o1 [Compound 436]
< 0.1 | 0.1 to 1 | Cc1nc2c(C)c(O)c(-c3ccc4nc(N5CC[C@H](NC(C)(C)C)C5)ncc4n3)cc2o1 [Compound 437]
< 0.1 | 0.1 to 1 | Cc1c(O)c(-c2ccc3nc(N4CC[C@@H](NC5CC5)C4)ncc3n2)cc2cn(C)nc12 [Compound 438, 5-{2-[(3R)-3-(cyclopropylamino)pyrrolidin-1-yl]pyrido[3,2-d]pyrimidin-6-yl}-2,7-dimethylindazol-6-ol]
< 0.1 | 0.1 to 1 | Cc1c(O)c(-c2ccc3nc(N4CC[C@H](NC5CC5)C4)ncc3n2)cc2cn(C)nc12 [Compound 439, 5-{2-[(3S)-3-(cyclopropylamino)pyrrolidin-1-yl]pyrido[3,2-d]pyrimidin-6-yl}-2,7-dimethylindazol-6-ol]
< 0.1 | 0.1 to 1 | Cc1nc2c(C)c(O)c(-c3ccc4cc(N5CC[C@@H](NC6CC6)C5)ncc4n3)cc2o1 [Compound 440, 6-{6-[(3R)-3-(cyclopropylamino)pyrrolidin-1-yl]-1,7-naphthyridin-2-yl}-2,4-dimethyl-1,3-benzoxazol-5-ol]
0.1 to 1 | 0.1 to 1 | Cc1nc2c(C)c(O)c(-c3ccc4cc(N5CC[C@H](NC6CC6)C5)ncc4n3)cc2o1 [Compound 441, 6-{6-[(3S)-3-(cyclopropylamino)pyrrolidin-1-yl]-1,7-naphthyridin-2-yl}-2,4-dimethyl-1,3-benzoxazol-5-ol]
0.1 to 1 | 1 to 10 | Cn1cc2cc(-c3ccc4cc(N5CCC(NC(C)(C)C)C5)ncc4n3)c(O)cc2n1 (stereo not drawn) [Compound 449, 5-{6-[3-(tert-butylamino)pyrrolidin-1-yl]-1,7-naphthyridin-2-yl}-2-methylindazol-6-ol]
1 to 10 | 1 to 10 | Cc1nc2cc(O)c(-c3ccc4cc(N5CC[C@H](NC(C)(C)C)C5)ncc4n3)cc2o1 [Compound 450]
0.1 to 1 | 1 to 10 | Cc1c(O)c(-c2cc(Cl)c3cc(N4CCNCC4)cc(C)c3n2)cc2cn(C)nc12 [Compound 482, 5-[4-chloro-8-methyl-6-(piperazin-1-yl)577yrrolidi-2-yl]-2,7-dimethylindazol-6-ol hydrochloride]
1 to 10 | 1 to 10 | Cc1cc2nc(-c3cc4cn(C)nc4c(C)c3O)cc(Cl)c2cc1N1CCNCC1 [Compound 484, 5-[4-chloro-7-methyl-6-(piperazin-1-yl)586yrrolidi-2-yl]-2,7-dimethylindazol-6-ol]

Structure (SMILES) | IC50 (HTT) [µM] | IC50 (Target C) [µM]
Cn1cc2cc(-c3ccc4nc(C5CCNC6(CC6)C5)ncc4n3)c(O)cc2n1 (stereo not drawn) [Compound 448, 5-(2-{4-azaspiro[2.5]octan-7-yl}pyrido[3,2-d]pyrimidin-6-yl)-2-methylindazol-6-ol] | 0.1 to 1 | 1 to 10

Source: patent US20250092065A1, “2-(INDAZOL-5-YL)-6-(PIPERIDIN-4-YL)-1,7-NAPHTHYRIDINE DERIVATIVES AND RELATED COMPOUNDS AS MODULATORS FOR SPLICING NUCLEIC ACIDS AND FOR THE TREATMENT OF PROLIFERATIVE DISEASES” (REMIX THERAPEUTICS INC., priority 2022, published 2025)
